This is an account of results in US20250276983A1, “COMPOUNDS AND METHODS FOR MODULATING HER2” (IAMBIC THERAPEUTICS, INC., priority 2022, published 2025).

Like-named read-outs stand apart in the source and are kept apart here.

Assay type in all cases: cell-based
One experiment deals with BaF3_HER2WT cells. Nature of the experiment: Cell growth inhibition assay, BaF3_HER2WT. Conditions: 72 h, 3 days treatment, CellTiterGlo 2.0, read-out: HER2 WT IC50 (nM), cell growth inhibition. (Cellular ATP, detected with luciferase, serves as a proxy for viable cell number.)
The next experiment concerns BaF3_HER2YVMA cells. Nature of the experiment: Cell growth inhibition assay, BaF3_HER2YVMA. The following applies: 72 h, read-out: HER2-YVMA IC50 (nM), cell growth inhibition.
The next experiment deals with BaF3_EGFRWT cells. Nature of the experiment: Cell growth inhibition assay, BaF3_EGFRWT. The following applies: 72 h, 80 ng/mL recombinant human EGF, 3 days treatment, CellTiterGlo 2.0, read-out: EGFR WT IC50 (nM), cell growth inhibition.
Where [1] appears, read: BaF3_HER2YVMA cells, 3 days treatment, CellTiterGlo 2.0.

On to `C=C(C(=O)O)C(=O)N1CCC(c2ccn3ncnc(Nc4ccc(Oc5ccn6ncnc6c5)c(C)c4)c23)CC1` [Example 20, 2-(4-(4-((4-([1,2,4]triazolo[1,5-a]pyridin-7-yloxy)-3-methylphenyl)amino)pyrrolo[2,1-f][1,2,4]triazin-5-yl)piperidine-1-carbonyl)acrylic acid], for which the 50% inhibitory concentration (IC50) in the experiment on BaF3_HER2WT cells, in the experiment with BaF3_HER2YVMA cells (setting [1]) and in the experiment with BaF3_EGFRWT cells was 1500 to 5000 nM throughout.

On to `Cc1cc(Nc2ncnn3ccc(C4CCN(C(=O)/C=C/CN5CCN(C)CC5)CC4)c23)ccc1Oc1ccn2ncnc2c1` [Example 24, (E)-1-(4-(4-((4-([1,2,4]triazolo[1,5-a]pyridin-7-yloxy)-3-methylphenyl)amino)pyrrolo[2,1-f][1,2,4]triazin-5-yl)piperidin-1-yl)-4-(4-methylpiperazin-1-yl)but-2-en-1-one], for which the IC50 in the experiment with BaF3_HER2WT cells was below 200 nM; in the experiment with BaF3_HER2YVMA cells (setting [1]), 500 to 1500 nM; in the experiment on BaF3_EGFRWT cells it was 1500 to 5000 nM.

`Cc1cc(Nc2ncnn3ccc(C4CCN(C(=O)/C=C/[C@H]5CCCN5C)CC4)c23)ccc1Oc1ccn2ncnc2c1` [Example 25, (R,E)-1-(4-(4-((4-([1,2,4]triazolo[1,5-a]pyridin-7-yloxy)-3-methylphenyl)amino)pyrrolo[2,1-][1,2,4]triazin-5-yl)piperidin-1-yl)-3-(1-methylpyrrolidin-2-yl)prop-2-en-1-one]: the IC50 in the experiment with BaF3_HER2WT cells was below 200 nM; in the experiment with BaF3_HER2YVMA cells (setting [1]), below 200 nM; in the experiment with BaF3_EGFRWT cells it was 1500 to 5000 nM.

For `C=C(F)C(=O)N1CC=C(c2ccn3ncnc(Nc4ccc(Oc5ccn6ncnc6c5)c(C)c4)c23)CC1` [Example 26, 1-(4-(4-((4-([1,2,4]triazolo[1,5-a]pyridin-7-yloxy)-3-methylphenyl)amino)pyrrolo[2,1-f][1,2,4]triazin-5-yl)-3,6-dihydropyridin-1(2H)-yl)-2-fluoroprop-2-en-1-one], the IC50 with BaF3_HER2WT cells was in the range of 200 to 500 nM; in the experiment on BaF3_HER2YVMA cells (setting [1]) it was 1500 to 5000 nM; in the experiment on BaF3_EGFRWT cells, 1500 to 5000 nM.

For the compound `C=C(C#N)C(=O)N1CCC(c2ccn3ncnc(Nc4ccc(Oc5ccn6ncnc6c5)c(C)c4)c23)CC1` [Example 27, 2-(4-(4-((4-([1,2,4]triazolo[1,5-a]pyridin-7-yloxy)-3-methylphenyl)amino)pyrrolo[2,1-f][1,2,4]triazin-5-yl)piperidine-1-carbonyl)acrylonitrile], the half-maximal inhibitory concentration (IC50) fell in the range of 500 to 1500 nM in the experiment on BaF3_HER2WT cells, 1500 to 5000 nM in the experiment with BaF3_HER2YVMA cells and 1500 to 5000 nM in the experiment with BaF3_EGFRWT cells.

For `C=CC(=O)N1CC=C(c2ccn3ncnc(Nc4ccc(Oc5ccn6ncnc6c5)c(C)c4)c23)C1` [Example 28, 1-(3-(4-((4-([1,2,4]triazolo[1,5-a]pyridin-7-yloxy)-3-methylphenyl)amino)pyrrolo[2,1-f][1,2,4]triazin-5-yl)-2,5-dihydro-1H-pyrrol-1-yl)prop-2-en-1-one acetate], the figures for the IC50 in the experiment with BaF3_HER2WT cells, in the experiment on BaF3_HER2YVMA cells (setting [1]) and in the experiment on BaF3_EGFRWT cells were below 200 nM, 500 to 1500 nM and 1500 to 5000 nM, respectively.

With `Cc1cc(Nc2ncnn3ccc(C4=CCN(C(=O)/C=C/CN(C)C)C4)c23)ccc1Oc1ccn2ncnc2c1` [Example 29, (E)-1-(3-(4-((4-([1,2,4]triazolo[1,5-a]pyridin-7-yloxy)-3-methylphenyl)amino)pyrrolo[2,1-f][1,2,4]triazin-5-yl)-2,5-dihydro-1H-pyrrol-1-yl)-4-(dimethylamino)but-2-en-1-one acetate], the IC50 in the experiment on BaF3_HER2WT cells was below 200 nM; in the experiment on BaF3_HER2YVMA cells (setting [1]), 1500 to 5000 nM; in the experiment with BaF3_EGFRWT cells, 1500 to 5000 nM.

As for `C=C(CN(C)C)C(=O)N1C2C=C(c3ccn4ncnc(Nc5ccc(Oc6ccn7ncnc7c6)c(C)c5)c34)CC1CC2` (stereo not drawn) [Example 30, 1-(3-(4-((4-([1,2,4]triazolo[1,5-a]pyridin-7-yloxy)-3-methylphenyl)amino)pyrrolo[2,1-f][1,2,4]triazin-5-yl)-8-azabicyclo[3.2.1]oct-2-en-8-yl)-2-((dimethylamino)methyl)prop-2-en-1-one acetate], the IC50 was below 200 nM in the experiment with BaF3_HER2WT cells, below 200 nM in the experiment with BaF3_HER2YVMA cells (setting [1]) and 1500 to 5000 nM in the experiment with BaF3_EGFRWT cells.

`Cc1cc(Nc2ccn3ncnc(C4CC5CCC(C4)N5C(=O)/C=C/CN(C)C)c23)ccc1Oc1ccn2cnnc2c1` (stereo not drawn) [Example 33, (E)-1-(3-(5-((4-([1,2,4]triazolo[4,3-a]pyridin-7-yloxy)-3-methylphenyl)amino)pyrrolo[2,1-f][1,2,4]triazin-4-yl)-8-azabicyclo[3.2.1]octan-8-yl)-4-(dimethylamino)but-2-en-1-one acetate]: the IC50 in the experiment on BaF3_HER2WT cells was below 200 nM; with BaF3_HER2YVMA cells (setting [1]) it was 200 to 500 nM; in the experiment with BaF3_EGFRWT cells, 1500 to 5000 nM.

In the case of `Cc1cc(Nc2ncnn3ccc(C4CCN(C(=O)C(F)Cl)CC4)c23)ccc1Oc1ccn2ncnc2c1` (stereo not drawn) [Example 35, 1-(4-(4-((4-([1,2,4]triazolo[1,5-a]pyridin-7-yloxy)-3-methylphenyl)amino)pyrrolo[2,1-f][1,2,4]triazin-5-yl)piperidin-1-yl)-2-chloro-2-fluoroethan-1-one acetate], the results for the concentration for half-maximal inhibition (IC50) in the experiment on BaF3_HER2WT cells, with BaF3_HER2YVMA cells (setting [1]) and in the experiment with BaF3_EGFRWT cells were below 200 nM, below 200 nM and 1500 to 5000 nM, respectively.

For the compound `Cc1cc(Nc2ncnn3ccc(C4CCN(C(=O)C5CC(=O)N5)CC4)c23)ccc1Oc1ccn2ncnc2c1` (stereo not drawn) [Example 36, 4-(4-(4-((4-([1,2,4]triazolo[1,5-a]pyridin-7-yloxy)-3-methylphenyl)amino)pyrrolo[2,1-f][1,2,4]triazin-5-yl)piperidine-1-carbonyl)azetidin-2-one acetate], the IC50 in the experiment with BaF3_HER2WT cells, with BaF3_HER2YVMA cells (setting [1]) and in the experiment with BaF3_EGFRWT cells was 1500 to 5000 nM in each case.

As for `Cc1cc(Nc2ncnn3ccc(C4CN(C(=O)/C=C/CN5CCOCC5)C4)c23)ccc1Oc1ccn2ncnc2c1` [Example 37, (E)-1-(3-(4-((4-([1,2,4]triazolo[1,5-a]pyridin-7-yloxy)-3-methylphenyl)amino)pyrrolo[2,1-f][1,2,4]triazin-5-yl)azetidin-1-yl)-4-morpholinobut-2-en-1-one], the results for the half-inhibitory concentration (IC50) in the experiment on BaF3_HER2WT cells, with BaF3_HER2YVMA cells (setting [1]) and in the experiment with BaF3_EGFRWT cells were below 200 nM, below 200 nM and 1500 to 5000 nM, respectively.

With `Cc1cc(Nc2ncnn3ccc(C4CN(C(=O)/C=C/CN5CC(F)C5)C4)c23)ccc1Oc1ccn2ncnc2c1` [Example 38, (E)-1-(3-(4-((4-([1,2,4]triazolo[1,5-a]pyridin-7-yloxy)-3-methylphenyl)amino)pyrrolo[2,1-f][1,2,4]triazin-5-yl)azetidin-1-yl)-4-(3-fluoroazetidin-1-yl)but-2-en-1-one], the IC50 with BaF3_HER2WT cells is below 200 nM; in the experiment on BaF3_HER2YVMA cells (setting [1]), below 200 nM; in the experiment on BaF3_EGFRWT cells, 1500 to 5000 nM.

As to `COC/C=C/C(=O)N1CC(c2ccn3ncnc(Nc4ccc(Oc5ccn6ncnc6c5)c(C)c4)c23)C1` [Example 40, (E)-1-(3-(4-((4-([1,2,4]triazolo[1,5-a]pyridin-7-yloxy)-3-methylphenyl)amino)pyrrolo[2,1-f][1,2,4]triazin-5-yl)azetidin-1-yl)-4-methoxybut-2-en-1-one], the IC50 was in the range of 200 to 500 nM with BaF3_HER2WT cells, 200 to 500 nM in the experiment with BaF3_HER2YVMA cells (setting [1]) and 1500 to 5000 nM with BaF3_EGFRWT cells.

For the compound `COC1CCN(C/C=C/C(=O)N2CC(c3ccn4ncnc(Nc5ccc(Oc6ccn7ncnc7c6)c(C)c5)c34)C2)C1` (stereo not drawn) [Example 41, (E)-1-(3-(4-((4-([1,2,4]triazolo[1,5-a]pyridin-7-yloxy)-3-methylphenyl)amino)pyrrolo[2,1-f][1,2,4]triazin-5-yl)azetidin-1-yl)-4-(3-methoxypyrrolidin-1-yl)but-2-en-1-one], the results for the half-inhibitory concentration (IC50) in the experiment with BaF3_HER2WT cells, in the experiment with BaF3_HER2YVMA cells (setting [1]) and in the experiment on BaF3_EGFRWT cells were below 200 nM, below 200 nM and 1500 to 5000 nM, respectively.

One may read the IC50 as the midpoint of a concentration-inhibition curve.
